Laboratory results as given in paper PMC11813147, “Bioactivity assessment of peptides derived from salted jellyfish (Rhopilema hispidum) byproducts” (PLOS ONE, 2025).

Legend:
[1] = test system: angiotensin I-converting enzyme (ACE); assay: ACE inhibitory activity assay (fluorometric ACE activity assay kit); format: biochemical
Description: The ACE inhibitory activity assay was performed following the method outlined by Batista et al., with slight modifications, using a fluorometric angiotensin I-converting enzyme (ACE) activity assay kit from Sigma-Aldrich (catalog number CS0002), Burlington, Massachusetts, USA. In summary, 10 µ L of the sample (1 mg/mL for the peptide sample and 50 µg/mL for ramipril) was combined with 40 µ L of the ACE solution (CS0002B) in 96-well flat-bottom black plates at 37 °C for 5 min. Next, 50 µ L of the substrate solution (CS0002C) was added to this mixture to initiate the reaction. A fluorescence multiwell plate reader was used to monitor the changes in fluorescence. The sample’s fluorescence was measured every min for 5 min, with excitation at 320 nm and emission at 405 nm. All reagents, except the test sample, were prepared to assess the ACE positive control activity. A kit standard solution (CS0002D) was diluted with assay buffer (CS0002A) to create different concentrations (nmol) of the standard solution, allowing generation of a standard curve. The slope of the standard curve (RFU/nmol) and the slope of the sample kinetic curve were utilized to calculate the ACE activity using the following equation (3):
ACEactivitynmol/min=Slopesample/Slopestandard×DF (3)
Where Slopesample refers to the slope of the blank-subtracted sample curve (RFU/min), Slopestandard refers to the slope of the blank-subtracted standard curve (RFU/nmol), DF is the dilution factor, and 0.1 nmol/min is equivalent to […].
In this study, the results of ACE inhibitory activity are expressed as percentages. The ACE inhibitory activity (%) was calculated using the following equation (4):
ACEinhibitoryactivity%=ACEPC–ACES/ACEPC×100 (4)
Where ACEPC represents the ACE activity of the positive control, and ACES denotes the ACE activity of the sample.

[2] = Ferric reducing antioxidant power (FRAP) assay; format: biochemical
Description: The FRAP assay was conducted following the method outlined by Rumpf et al.. The FRAP solution was prepared by mixing 300 mM acetate buffer (pH 3.6), 10 mM TPTZ (2,4,6-Tris(2-pyridyl)-s-triazine) in 40 mM hydrochloric acid, and 20 mM FeCl3 in a ratio of 10:1:1. In a 96-well plate, 10 μL of the sample was combined with 190 μL of the FRAP solution and incubated in the dark for 15 min. The absorbance of the mixture was then measured at 593 nm. FeSO4 was used to create the standard curve, and the results were expressed as millimoles of FeSO4 equivalent per milligram of protein (mM FeSO4/mg protein).

[3] = DPPH radical scavenging assay; format: biochemical; settings: supplement tables; for DPPH, mean±SD: n = 3
Description: The DPPH radical scavenging activity of the sample was assessed following a modified protocol based on a previous study. In each well of a 96-well plate, 10 μL of the sample was added, followed by 190 μL of 0.1 mM DPPH solution in 70% ethanol. The mixture was then incubated at room temperature in the dark for 30 min. After the incubation period, the absorbance of the mixture was measured at 517 nm. The DPPH radical scavenging activity was calculated using the following equation (1):
DPPHradicalscavengingactivity%=Acontrol–Asample/Acontrol×100 (1)
In this equation, Acontrol represents the absorbance of a control solution containing all reagents except for the test samples, while Asample is the absorbance of the mixture (the sample combined with 0.1 mM DPPH). To determine the Trolox equivalent antioxidant capacity (TEAC), a Trolox standard curve was utilized. The results were expressed as millimoles of Trolox equivalents per milligram of protein (mM TE/mg protein).

RAW 264.7 [4] = assay: Anti-inflammation assay: released NO in LPS-stimulated RAW 264.7 (Griess); format: cell-based, Murine; settings: then 1 µg/mL LPS 24 h; for Released NO: peptide 10 µg/mL 1 h; for Released NO, mean±SD: peptide 10 µg/mL pre-treatment 1 h, Griess reagent, n = 3
Description: (§1) Murine macrophage cells (RAW 264.7; ATCC TIB-71™) were cultured in Dulbecco’s Modified Eagle’s Medium (DMEM) that was supplemented with 10% heat-inactivated fetal bovine serum (FBS) and 1% antibiotic solution. Colorectal adenocarcinoma cells (CaCo-2; ATCC HTB 37™) were cultured in Eagle’s Minimum Essential Medium (EMEM), also supplemented with 10% heat-inactivated FBS and 1% antibiotic solution. Both cell types were maintained in a humidified incubator with 5% CO2. The cell culture medium was refreshed every three days.
The anti-inflammation assay was conducted following the method described by Barzkar et al. with slight modifications. RAW 264.7 (1 x 10^5 cells) was seeded into a 96-well plate to allow for cell attachment. After 24 h, the cells were pre-treated with fresh medium containing peptide samples at a concentration of 10 µg/mL for 1 h. Subsequently, the treated cells were stimulated with 1 µg/mL lipopolysaccharide (LPS) for an additional 24 h. Unstimulated cells were included as a negative control. At the end of the treatment period, the conditioned medium was collected for the determination of released nitric oxide (NO). Griess’s reagent (Promega) was utilized to measure the NO concentration, following the manufacturer’s instructions. A NO calibration curve was generated to quantify the released NO in the conditioned medium.

[5] = ABTS radical scavenging assay; format: biochemical; settings: supplement tables; for ABTS, mean±SD: n = 3
Description: The ABTS radical scavenging activity of the sample was measured using a method adapted from Mirzaei et al.. The ABTS radical was generated by mixing 7 mM ABTS with 2.45 mM potassium persulfate in a 1:1 ratio and incubating the mixture in the dark at room temperature for 12 to 16 h. The resulting solution was then diluted to achieve an absorbance of 0.74 ± 0.03 at 734 nm, using deionized water for adjustments. Next, 10 μL of the sample was added to 190 μL of the ABTS solution. The mixture was incubated in the dark for 7 min, after which the absorbance was measured at 734 nm. The ABTS radical scavenging activity (%) was calculated using the following equation (2):
ABTSradicalscavengingactivity%=Acontrol–Asample/Acontrol×100 (2)
In this equation, Acontrol refers to the absorbance of the control solution (which contains all reagents except the test samples), while Asample refers to the absorbance of the mixture containing the sample and the ABTS solution. To determine the Trolox equivalent antioxidant capacity (TEAC), a Trolox standard curve was used, and the results were expressed as millimoles of Trolox equivalents per milligram of protein (mM TE/mg protein).

RAW 264.7 [6] = assay: Cytotoxicity assessment (MTT); format: cell-based, Murine; settings: peptide 10 µg/mL, 72 h
Description: as §1
Cytotoxicity assessment was performed following the method described by Yang et al., with slight modifications. RAW 264.7 was seeded with 1 x 10^5 cells in a 96-well plate with an appropriate cell culture medium. After allowing the cells to attach, the medium was replaced with a fresh cell culture medium containing the peptide samples at a concentration of 10 µg/mL. The treated cells were incubated for an additional 72 h. At the designated time, fresh medium was added, which included 3-(4,5-dimethylthiazol-2-yl)-2,5-diphenyltetrazolium bromide (MTT) at a concentration of 0.5 mg/mL. After 3 h, formazan crystals were observed. The medium was then removed, and the crystals were dissolved in 100% dimethyl sulfoxide (DMSO). A microplate reader (Synergy HTX; Biotek, Multi-Mode Reader, Winooski, VT, USA) was utilized to measure the absorbance at 570 nm (measurement wavelength) and 630 nm (reference wavelength). The percentage of cell viability was calculated relative to untreated cells using the following equation (5):
Cellviability%=ODtreatment–ODblank/ODuntreated–ODblank×100 (5)
Where ODtreatment is the absorbance of the treated sample, ODuntreated is the absorbance of the untreated sample, and ODblank is the absorbance from wells without treated and untreated samples.

[7] = 10 µL sample + 190 µL FRAP solution, 15 min dark, 593 nm, FeSO4 standard curve, mean ± SD, n = 3, SD
[8] = peptide sample 1 mg/mL, 37 °C, fluorescence ex 320/em 405 nm, mean ± SD, n = 3, SD
[9] = peptide sample 1 mg/mL, replicate 1
[10] = peptide sample 1 mg/mL, replicate 2
[11] = peptide sample 1 mg/mL, replicate 3

Compound | FRAP ([2]; supplement tables, replicate 1) [mM FeSO4/mg protein] | FRAP ([2]; supplement tables, replicate 2) [mM FeSO4/mg protein] | FRAP ([2]; supplement tables, replicate 3) [mM FeSO4/mg protein] | ACE inhibitory activity [1, 9] [%] | ACE inhibitory activity [1, 10] [%] | ACE inhibitory activity [1, 11] [%] | DPPH, mean±SD [3] | DPPH ([3]; replicate 1) [TE/mg protein] | DPPH ([3]; replicate 2) [TE/mg protein] | DPPH ([3]; replicate 3) [TE/mg protein] | Released NO (RAW 264.7 [4]; replicate 1) [µM] | Released NO (RAW 264.7 [4]; replicate 2) [µM] | Released NO (RAW 264.7 [4]; replicate 3) [µM] | Released NO, mean±SD (RAW 264.7 [4]) | ABTS, mean±SD [5] | ABTS ([5]; replicate 1) [TE/mg protein] | ABTS ([5]; replicate 2) [TE/mg protein] | ABTS ([5]; replicate 3) [TE/mg protein] | Cell viability (RAW 264.7 [6]; replicate 1) [%] | Cell viability (RAW 264.7 [6]; replicate 2) [%] | also measured
CCOC(=O)[C@H](CCc1ccccc1)N[C@@H](C)C(=O)N1[C@H](C(=O)O)C[C@@H]2CCC[C@@H]21 [Ramipril, ramipril, reference compound] | – | – | – | – | – | – | – | – | – | – | – | – | – | – | – | – | – | – | – | – | ACE inhibitory activity, mean±SD ([1]; ramipril 50 µg/mL, mean ± SD, n = 3, SD): 23.23±0.44^G %; ACE inhibitory activity, mean±SD ([1]; ramipril 50 µg/mL, mean ± SD, n = 3, listed as ramipril, SD): 23.23 ± 0.44%; ACE inhibitory activity ([1]; ramipril 50 µg/mL, replicate 1): 22.79%; ACE inhibitory activity ([1]; ramipril 50 µg/mL, replicate 2): 23.23%; ACE inhibitory activity ([1]; ramipril 50 µg/mL, replicate 3): 23.67%
EIILIPMF [P3, synthesized peptide identified from jellyfish fraction PUR20C] | 9.31 | 9.31 | 9.10 | 33.58 | 33.87 | 34.16 | 2.93 TE/mg protein | 2.84 | 2.58 | 3.37 | 37.58 | 35.17 | 37.24 | 36.66 ± 1.30 µM | 3.17 TE/mg protein | 3.31 | 2.71 | 3.51 | 75.57 | 75.92 | FRAP [2, 7]: 9.24±0.12 mM FeSO4/mg protein; ACE inhibitory activity, mean±SD [1, 8]: 33.87±0.28^E %; Cell viability (RAW 264.7 [6]; replicate 3): 75.39%
LMFMAVAFF [P12, synthesized peptide identified from jellyfish fraction PUR20C] | 16.26 | 17.31 | 16.68 | 49.61 | 43.60 | 49.33 | 2.75 TE/mg protein | 2.58 | 2.58 | 3.11 | 36.89 | 38.62 | 40.00 | 38.50±1.55^B µM | 0.64±0.30^M TE/mg protein | 0.90 | 0.30 | 0.70 | 76.97 | 73.98 | FRAP [2, 7]: 16.75±0.52^B mM FeSO4/mg protein; ACE inhibitory activity, mean±SD [1, 8]: 47.51±3.39^D %; Cell viability (RAW 264.7 [6]; replicate 3): 74.86%
NFTVLCDSLE [P10, synthesized peptide identified from jellyfish fraction PUR20C] | 20.05 | 21.10 | 18.36 | 11.25 | 9.82 | 8.39 | 45.99±1.10^B TE/mg protein | 46.34 | 44.75 | 46.87 | 35.86 | 35.17 | 38.27 | 36.43 µM | 98.00±0.50^G TE/mg protein | 97.47 | 98.07 | 98.47 | 85.41 | 84.35 | inhibition [1, 8]: 9.82 ± 1.43%; Cell viability, mean±SD (RAW 264.7 [6]; relative to untreated cells, mean ± SD, n = 3, SD): 85.35%; Cell viability (RAW 264.7 [6]; replicate 3): 86.29%
